In PMC7179119, “A New Positron Emission Tomography Probe for Orexin Receptors Neuroimaging” (Molecules, 2020):

How the values were obtained:
[1] = target: T1, human recombinant orexin OX1 receptors (Homo sapiens, UniProt O43613); test: Human Orexin GPCR Binding (Agonist Radioligand) Assay, [125I] Orexin A competition; details: radioligand competition binding assay; read-out: IC50 (nM) OXR1
T1 construct: host or cells: CHO-S cells
T1 sequence (O43613 1-425): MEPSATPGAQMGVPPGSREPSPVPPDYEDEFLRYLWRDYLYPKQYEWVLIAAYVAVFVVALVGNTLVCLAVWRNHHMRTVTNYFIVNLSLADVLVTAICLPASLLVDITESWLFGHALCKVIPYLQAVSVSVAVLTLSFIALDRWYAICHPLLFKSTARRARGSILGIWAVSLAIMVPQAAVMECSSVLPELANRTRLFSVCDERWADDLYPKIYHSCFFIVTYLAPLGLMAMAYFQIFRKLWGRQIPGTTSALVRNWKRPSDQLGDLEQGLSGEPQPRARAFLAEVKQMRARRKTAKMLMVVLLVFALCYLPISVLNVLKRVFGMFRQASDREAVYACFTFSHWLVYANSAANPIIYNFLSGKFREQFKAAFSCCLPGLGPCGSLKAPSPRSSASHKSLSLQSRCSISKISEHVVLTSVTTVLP
Method: (§1) Radioligand competition binding assays were performed by Panlabs, Eurofins Pharma Discovery Services. Briefly, human recombinant orexin OX1 receptors expressed in CHO-S cells were used in modified HEPES buffer pH 7.4. […] Orexin A for 60 minutes at 25 °C. […] Orexin A specifically binding. Human recombinant OX2 receptors were used in modified HEPES buffer pH 7.4. […] Orexin A for 180 minutes at 25 °C. […] Orexin A specifically bound.

[2] = target: T2, Human recombinant OX2 receptors (Homo sapiens, UniProt O43614); test: as above; details: radioligand competition binding assay; read-out: IC50 (nM) OXR2
T2 sequence (O43614 1-444): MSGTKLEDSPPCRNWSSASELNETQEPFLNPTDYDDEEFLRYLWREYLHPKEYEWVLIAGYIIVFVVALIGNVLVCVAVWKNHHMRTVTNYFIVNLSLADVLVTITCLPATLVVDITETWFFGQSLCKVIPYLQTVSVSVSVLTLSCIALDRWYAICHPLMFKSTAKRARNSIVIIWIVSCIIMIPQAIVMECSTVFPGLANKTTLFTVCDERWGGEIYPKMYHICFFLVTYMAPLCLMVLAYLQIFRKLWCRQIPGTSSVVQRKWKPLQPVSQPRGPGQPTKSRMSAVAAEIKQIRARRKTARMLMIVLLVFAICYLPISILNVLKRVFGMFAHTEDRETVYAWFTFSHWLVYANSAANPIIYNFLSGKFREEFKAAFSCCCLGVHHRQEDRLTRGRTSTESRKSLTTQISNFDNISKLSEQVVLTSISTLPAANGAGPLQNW
Method: as §1

OXRs = test: Mouse PET-CT blocking study of [^11C]CW24 uptake; assay type: in vivo, mice
Method: (§2) Animals were anesthetized with 1–1.5% isoflurane and maintained with isoflurane during the imaging scan. In a single imaging session, mice were arranged in a Triumph PET/CT scanner (Gamma Medica, Northridge, CA). […] Animals underwent a 60 min dynamic PET scan followed by computed tomography (CT).
(§3) PET data were reconstructed using a 3D-MLEM method resulting in a full width at half-maximum resolution of 1 mm. PET and CT images in DICOM format were imported to PMOD (PMOD Technologies, Ltd. Zürich, Switzerland) and co-registered to the brain atlas. Volumes of interest (VOIs) were drawn as spheres in brain regions guided by CT structural images and summed PET data. Time-activity curves (TACs) were exported as activity per unit volume (%ID/cc) for analysis.

OX2R = OX2R vs OX1R; cited from earlier work
[3] = Plasma and metabolite analysis; assay type: in vivo, rhesus macaque; details: macaque arterial plasma, at 30 min
Method: Briefly, arterial blood samples collected (every 10 s at first 3 min post-administration of [^11C]CW24, then 5 min, 10 min, 20 min, 30 min, 45 min, 60 min, and 90 min) during macaque imaging were centrifuged to separate plasma, which was then removed and placed in an automated gamma counter. Metabolite analysis of blood samples collected from 5 to 90 min was conducted on a custom automated robot fitted with Phenomenex SPE Strata-X 500 mg solid phase extraction cartridges that were primed with ethanol (2 mL) and deionized water (20 mL). Protein precipitation was achieved by the addition of plasma (300 μL) to acetonitrile (300 μL), which was centrifuged for 1 min to obtain protein-free plasma (PFP). Three hundred microliters of PFP/acetonitrile solution was diluted into deionized water (3 mL), loaded onto the C18 cartridge, and removed of polar metabolites with 100% water. Next, a series of extractions was performed using water and acetonitrile. Each sample was counted in a WIZARD2 Automatic Gamma Counter to determine the presence of radiolabeled metabolites.

[4] = Mouse PET-CT imaging, brain uptake; assay type: in vivo; details: mice, i.v., baseline
Method: as §2, §3

[5] = Macaque PET-MR imaging and Logan plot kinetic modeling; assay type: in vivo, rhesus macaque; details: all brain regions examined
Method: A male rhesus macaque (14.4 kg) was included in this study. After endotracheal intubation, the macaque was catheterized antecubitally for radiotracer injection and a radial arterial line was placed for arterial blood sampling and radiometabolite analysis. The animal was anesthetized with 1.2–1.3% Isoflurane in medical oxygen throughout the imaging session. PET-MR data was acquired on a 3T Siemens MRI scanner (Munich, Germany) with a BrainPET insert. A baseline and a blocking scan were performed on the same animal. Dynamic PET image acquisition was initiated followed by a bolus administration of [^11C]CW24 (179 MBq for the baseline scan and 192 MBq for the blocking scan). To characterize the specific binding of [^11C]CW24, a blocking study was carried out in which 2.0 mg/kg IPSU (1.0 % DMSO + 1.0 % Tween 80 + 98.0 % saline to make a solution of 1.0 mg/mL) was administered 5 min prior the acquisition. A T1-weighting multi-echo magnetization-prepared rapid gradient-echo ([…]) sequence began as the PET scan for anatomic co-registration. […]
Motion-corrected PET data were registered to the INIA19 macaque MRI Template. […] With the availability of a metabolite-corrected arterial plasma data, the regional volume of distribution (VT) was calculated using Logan Plot analysis (with a fixed t* of 40 min).

Compound: COc1ccnc(N2CCC3(CCCN(Cc4c[nH]c5ccccc45)C3=O)CC2)n1 [IPSU, reference compound]
- IC50 [1]: 1090 nM
- IC50 [2]: 3130 nM
- reduction in [^11C]CW24 uptake (OXRs; mice brain, 0.5 mg/kg IPSU i.v. 5 min pretreatment, 30–60 mins post-injection): Approximately 10%
- reduction in [^11C]CW24 uptake (OXRs; mice brain, 2.0 mg/kg IPSU i.v. 5 min pretreatment): approximately 50%

Compound: orexin-B: orexin peptide with 28 amino acids
- higher affinity for OX2R compared with OX1R (OX2R): 10 fold

Compound: Cc1ccc(-n2nccn2)c(C(=O)N2CCN(c3nc4cc(Cl)ccc4o3)CC[C@H]2C)c1 [Suvorexant]
- reduction in [^11C]CW24 uptake (OXRs; mouse brain, Suvorexant 5.0 mg/kg i.v., 30–60 mins post-injection): approximately 50%

Compound: COc1ccnc(N2CCC3(CCCN(Cc4cn([11CH3])c5ccccc45)C3=O)CC2)n1 [[^11C]CW24]
- parent compound in plasma [3]: ~ 47%
- brain uptake %ID/cc at Cmax [4]: 3.5 %ID/cc
- peak standard uptake value (SUV) [5]: 1.5–3.0
